Laboratory results: patent US7238691B2, “Piperidine derivatives and their use as modulators of chemokine (especially CCR3) activity” (AstraZeneca AB, priority 2001, dated 2007)

Columns and labels:
[1] = target: T1, human H1 receptor (Homo sapiens, UniProt P35367); experiment: Histamine H1 receptor binding, competition displacement of [3H]-pyrilamine; conditions: 1 nM [3H]-pyrilamine; membranes from recombinant CHO-K1 cells expressing the human H1 receptor; 1 hour at room temperature; read-out: H1 pKi/ [1328_S] (converted)
T1 construct: purchased Furoscreen S A, Brussels, Belgium (so in the source); host or cells: CHO-K1
Protocol: Histamine H1 receptor binding activity of compounds of the invention was assessed by competition displacement of 1 nM [3H]-pyrilamine (Amersham, Bucks, Product code TRK 608, specific activity 30Ci/mmol) to 2 μg membranes prepared from recombinant CHO-K1 cells expressing the human H1 receptor (Furoscreen S A, Brussels, Belgium, product code ES-390-M) in assay buffer (50 mM Tris pH 7.4 containing 2 mM MgCl2, 250 mM sucrose and 100 mM NaCl) for 1 hour at room temperature.

[2] = target: T2, CCR3 (Homo sapiens, UniProt P51677); experiment: Human eosinophil chemotaxis (eotaxin mediated); format: cell-based; conditions: compound at 1 μM
T2 construct: Human eosinophils were isolated from EDTA anticoagulated peripheral blood; endogenous in cells; host or cells: human peripheral blood eosinophils
T2 sequence (P51677 1-355): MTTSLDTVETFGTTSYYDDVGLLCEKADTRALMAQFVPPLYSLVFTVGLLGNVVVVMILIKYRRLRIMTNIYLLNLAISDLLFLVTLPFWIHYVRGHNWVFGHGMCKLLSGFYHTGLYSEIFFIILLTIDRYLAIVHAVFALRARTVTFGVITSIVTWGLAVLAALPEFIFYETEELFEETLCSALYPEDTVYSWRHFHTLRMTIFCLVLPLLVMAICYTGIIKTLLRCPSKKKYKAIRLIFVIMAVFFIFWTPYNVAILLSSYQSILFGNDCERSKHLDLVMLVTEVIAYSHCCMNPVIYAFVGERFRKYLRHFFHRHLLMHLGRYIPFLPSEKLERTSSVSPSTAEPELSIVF
Protocol: Human Eosinophil Chemotaxis
Human eosinophils were isolated from EDTA anticoagulated peripheral blood as previously described (Hansel et al., J. Immunol. Methods, 1991, 145, 105-110). The cells were resuspended at 10×10^6 ml^−1 in RPMI containing 200 μg/ml penicillin, 200 μg/ml streptomycin sulfate and supplemented with 10% HIFCS, at room temperature.
Eosinophils (700 μl) were pre-incubated for 15 mins at 37° C. with 7 μl of either vehicle or compound (100× required final concentration in 10% DMSO). The chemotaxis plate (ChemoTx, 3 μm pore, Neuroprobe) was loaded by adding 28 μl of a concentration of eotaxin 0.1 to 100 nM (a selective CCR3 agonist over this concentration range) containing a concentration of a compound according to the Examples or solvent to the lower wells of the chemotaxis plate. The filter was then placed over the wells and 25 μl of eosinophil suspension were added to the top of the filter. The plate was incubated for 1 hr at 37° C. in a humidified incubator with a 95% air/5% CO2 atmosphere to allow chemotaxis.
The medium, containing cells that had not migrated, was carefully aspirated from above the filter and discarded. The filter was washed once with phosphate buffered saline (PBS) containing 5 mM EDTA to remove any adherent cells. […] The number of eosinophils migrating was quantified according to the method of Strath et al., J. Immunol. […]

T1 sequence (P35367 whole entry): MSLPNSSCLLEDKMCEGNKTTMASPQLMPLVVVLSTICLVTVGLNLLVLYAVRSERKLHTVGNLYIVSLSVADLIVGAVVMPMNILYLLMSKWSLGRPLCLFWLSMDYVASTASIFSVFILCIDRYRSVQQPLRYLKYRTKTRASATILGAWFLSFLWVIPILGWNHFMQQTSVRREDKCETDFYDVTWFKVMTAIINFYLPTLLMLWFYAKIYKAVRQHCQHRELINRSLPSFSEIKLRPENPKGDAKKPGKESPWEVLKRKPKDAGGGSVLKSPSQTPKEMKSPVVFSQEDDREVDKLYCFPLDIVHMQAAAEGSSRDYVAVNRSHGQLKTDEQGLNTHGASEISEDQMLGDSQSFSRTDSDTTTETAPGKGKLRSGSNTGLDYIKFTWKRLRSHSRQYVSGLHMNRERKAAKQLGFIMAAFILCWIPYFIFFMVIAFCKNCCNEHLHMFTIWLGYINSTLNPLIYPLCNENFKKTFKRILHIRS

Row | Ki [1] [nM] | SMILES | inhibition at 1 µM [2] [%]
1 | 7.94 | O=C(c1c[nH]c(=O)c2ccccc12)N1CCO[C@H](CN2CCC(Oc3ccc(Cl)c(Cl)c3)CC2)C1 [Example 73] | > 75
2 | 100 | CS(=O)(=O)c1cccc(C(=O)N2CCOC(CN3CCC(Oc4ccc(Cl)c(Cl)c4)CC3)C2)c1 (stereo not drawn) [Example 4, 2-{[4-(3,4-dichlorophenoxy)piperidin-1-yl]methyl}-4-[3-(methylsulfonyl)benzoyl]morpholine] | –
3 | 12.6 | O=C(c1cn2cc(F)ccc2n1)N1CCOC(CN2CCC(Oc3ccc(Cl)c(Cl)c3)CC2)C1 (stereo not drawn) [Example 3, 2-[(2-{[4-(3,4-dichlorophenoxy)piperidin-1-yl]methyl}morpholin-4-yl)carbonyl]-6-fluoroimidazo[1,2-a]pyridine] | –

Row | SMILES | Ki [1] [nM] | inhibition at 1 µM [2] [%]
4 | CS(=O)(=O)c1cccc(C(=O)N2CCO[C@@H](CN3CCC(Oc4ccc(Cl)c(Cl)c4)CC3)C2)c1 [Example 5, (2S)-2-{[4-(3,4-Dichlorophenoxy)piperidin-1-yl]methyl}-4-[3-(methylsulfonyl)benzoyl]morpholine] | 20 | > 75
